Experimental data published in patent US20110003692A1, “HERBICIDALLY AND INSECTICIDALLY ACTIVE PHENYL-SUBSTITUTED PYRIDAZINONES” (BAYER CROPSCIENCE AG, priority 2008, published 2011).

Experiments:
[1] = test system: eggs from the tobacco budworm (Heliotis virescens); assay: Heliothis virescens test (spray treatment); format: in vivo; conditions: application rate 500 g/ha, spray on soybean leaves, after 7 days
Method: • 78.0 parts by weight of acetone • 1.5 parts by weight of dimethylformamide Emulsifier: 0.5 part by weight of alkylaryl polyglycol ether
To produce a suitable preparation of active compound, 1 part by weight of active compound is mixed with the stated amounts of solvents and emulsifier, and the concentrate is diluted with emulsifier-containing water to the desired concentration. Soybean leaves (Glycine max.) are sprayed with an active compound preparation of the desired concentration and populated with eggs from the tobacco budworm (Heliotis virescens). After 7 days, the effect in % is determined. 100% means that all eggs have been killed, 0% means that no eggs have been killed.

Row | Structure (SMILES) | effect in % (eggs killed) [1] | melting point
1 | CC(C)(C)n1ncc(O)c(-c2ccc(Cl)cc2Cl)c1=O [I-1-a-5] | at least 80% | 
2 | COc1cnn(C)c(=O)c1-c1ccc(Cl)c(Cl)c1 [I-1-h-1, 4-(3,4-dichlorophenyl)-5-methoxy-2-methyl-3(2H)-pyridazinone] |  | 176 °C
